Assay [1] deals with 262 bp restriction fragment (EcoRI/FspI) of pBR322. The assay can be described thus: DNA alkylation / cleavage reactions. Format: biochemical. How it is done:
Alkylation was examined on a 262 bp restriction fragment (EcoRI/FspI) of pBR322, radiolabeled on the 3′ end (10,000 cpm/reaction). Polyamide or bromodistamycin were added at appropriate concentrations. Final reaction concentrations were 10 mM sodium phosphate (pH 7.0), 100 μM sonicated calf thymus DNA. The reactions were incubated at 37° C. for 0, 1, 5, 10, 20, and 40 hours. Following incubation, the reactions were ethanol precipitated and dissolved in 10 μl 10 mM sodium phosphate buffer and heated at 90° C. for 15 minutes. Piperidine (40 μl, 1.4 M) was added and the reaction heated again for 15 minutes at 90° C. Piperidine was lyophilized off and the reactions were resuspended in 7 μl 1× TBE/80% formamide loading buffer, denatured by heating at 85° C. for 10 minutes and placed on ice. Reactions were electrophoresed on 8% polyacrylamide gels (5% cross link, 7 M urea) in 1× TBE at 2000V. Gels were dried and exposed to a storage phosphor screen (Molecular Dynamics).

Another assay has as its system 5′-AAAAAGACAAAAA-3′. Put plainly: Quantitative DNase I footprint titration. Format: binding. The settings on record: 13 bp site. From the text: At least two distinct binding modes are expected to form for the ImPyPy-X-PyPyPy-Dp polyamides described above that bind in an extended conformation. These binding modes as “slipped” and “overlapped”. In the overlapped (9 base pair) binding mode, two ImPyPy-X-PyPyPy-Dp polyamides bind directly opposite one another. The “slipped” (13 base pair) binding mode integrates the 2:1 and 1:1 polyamide-DNA binding motifs at a single site. In this binding mode, the ImPyPy moieties of two ImPyPy-X-PyPyPy-Dp polyamides bind the central 5′-AGACA-3′ sequence in a 2:1 manner as in the ImPyPy homodimer, and the PyPyPy moieties of the polyamides bind to A,T flanking sequences as in the 1:1 complexes of distamycin.

For a further assay, the system named is 5′-TGTTAAACA-3′. The assay can be described thus: Quantitative DNase I footprint titration. In kind it is binding. The settings on record: 9 bp site. From the text: To identify a flexible linker amino acid, four polyamides of the formula ImPyPy-X-PyPyPy-Dp where X=Py, G (glycine), β, or γ, respectively, were synthesized and their equilibrium association constants determined for 5′-[…]-3′ (9 base pair) sites. (Trauger, et al. J. Am. Chem. Soc., 118, 6160 (1996).)

Another assay concerns 5′-TGCGCA-3′. Put plainly: DNase I footprint titration, pSES9hp fragment. Format: binding. The source says: The experimental target plasmid pSES9hp was constructed by hybridization of the inserts:
The plasmid pSES9hp was linearized with EcoRI and PvuII and then treated with Klenow fragment, deoxyadenosine 5′-[α-^32P]triphosphate and thymidine 5′-[α-^32P]triphosphate for 3′ labeling. Alternatively, pSES9hp was linearized with EcoRI, treated with calf alkaline phosphatase, and then 5′ labeled with T4 polynucleotide kinase and deoxyadenosine 5′- [γ-^32P]triphosphate. The 5′ labeled fragment was then digested with PvuII. The labeled fragment (3′ or 5′) was loaded onto a 5% non-denaturing polyacrylamide gel, and the desired 282 base pair band was visualized by autoradiography and isolated. Chemical sequencing reactions were performed according to published methods. (Maxam, A. M. & Gilbert, W. S. (1980). Sequencing End-Labeled DNA with Base-Specific Chemical Cleavages. Methods Enzymol. 65, 499-560; Iverson, B. L. & Dervan, P. B. (1987). Adenine-specific DNA chemical sequencing reaction. […], 7823-7830.)

The next assay has as its system 5′-AGTACT-3′. Put plainly: Quantitative DNase I footprint titration, 229 bp restriction fragment. In kind it is binding. As for the experimental part: (§1) ImPyPyPy-γ-ImPyPyPy-β-Dp and ImPyPyPy-γ-PyPyPyPy-β-Dp were synthesized by solid phase methods and purified by reversed phase HPLC. Equilibrium association constants for match and mismatch six base pair binding sites on a 3′^32P-labeled 229 bp restricted fragment were determined by quantitative DNase I footprint titration experiments. […] The specificity of ImPyPyPy-γ-ImPyPyPy-β-Dp and ImPyPyPy-γ-PyPyPyPy-β-Dp for their respective match sites results from very small structural changes.

The test system of assay [2] is 282 bp EcoRI/PvuII restriction fragment from plasmid pSES9hp (5′-TGGCCA-3′, 5′-TGCGCA-3′, 5′-TGGGGA-3′ sites). Put plainly: Affinity cleaving, identification of binding orientation. The settings on record: 25 mM Tris-acetate, 10 mM NaCl, 100 μM/base pair calf thymus DNA, pH 7.0, 22° C. As for the experimental part:
Affinity cleavage assays (25 mM Tris-acetate, 10 mM NaCl, 100 μM/base pair calf thymus DNA, pH 7.0 and 22° C.) were performed in order to identify the binding orientations of the EDTA analogues of the three hairpin polyamides: ImImPyPy-γ-ImImPyPy-β-Dp-EDTA, ImPyImPy-γ-ImPyImPy-β-Dp-EDTA , and ImImImIm-γ-PyPyPyPy-β-Dp-EDTA.
Depicted in FIG. 17 is a representative affinity cleaving experiment on a 3′-^32P-labeled 282 bp EcoRI/PvuII restriction fragment from plasmid pSES9hp. […] Lane 1, A reaction; lane 2, C reaction; lanes 3-5, 1 μM, 2 μM and 5 μM ImImPyPy-γ-ImImPyPy-β-Dp-EDTA (1-E); lanes 6-8, 1 μM, 2 μM and 5 μM ImPyImPy-γ-ImPyImPy-β-Dp-EDTA (2-E); lanes 9-11, 1 μM, 2 μM and 5 μM ImImImIm-γ-PyPyPyPy-β-Dp-EDTA (3-E); lane 12, intact DNA. All lanes contain 15 kcpm 3′-radiolabeled DNA, 25 mM Tris-acetate buffer (pH 7.0), 10 mM NaCl, and 100 μM/base pair calf thymus DNA. (Right) Affinity cleavage patterns for ImImPyPy-γ-ImImPyPy-β-Dp-EDTA and ImPyImPy-γ-ImPyImPy-β-Dp-EDTA at 1 μM concentration, and ImImImIm-γ-PyPyPyPy-β-Dp-EDTA at 5 μM concentration. Illustration of the 282 bp restriction fragment with the position of the sequence indicated. Bar heights are proportional to the […] at each band. Boxes represent equilibrium binding sites determined by the published model, and only sites that were quantitated by DNase I footprint titrations are boxed.

Assay [3] relates to 5′-TGTTA-3′. The settings on record: cited from earlier work.
In assay [4] the test system is 5′-TGTTA-3′. Put plainly: Quantitative DNase I footprint titration, equilibrium association constant.
In a further assay the test system is 5′-AGTATT-3′. Put plainly: Quantitative DNase I footprint titration, 229 bp restriction fragment. Format: binding. How it is done: as §1
A further assay has as its system 5′-[…]-3′. The assay can be described thus: Quantitative DNase I footprinting, pJT-LTR 245 base pair fragment. In kind it is binding, HIV-1.

As for `Cn1cc(NC(=O)c2cc(NC(=O)c3cc(NC(=O)CBr)cn3C)cn2C)cc1C(=O)NCCC(=N)N` [N-Bromoacetyldistamycin], the “DNA cleavage (alkylation)” value is listed as “comparable amount of cleavage to (+) CC-1065 at 1 hour, but at only one adenine” in assay [1] (after 10 hours at 37°) and “almost no visible cleavage” in assay [1] (reaction time 1 hour at 37° C.).
Turning to `COc1c(O)c2c(c3cc(C(=O)N4CCc5c4c(O)c(OC)c4[nH]c(C(=O)N6C[C@H]7C[C@@]78C6=CC(=O)c6[nH]cc(C)c68)cc54)[nH]c13)CCN2C(N)=O` [(+)CC-1065], in assay [1] (reaction time 1 hour at 37° C.), the “DNA cleavage (alkylation)” value is “intense cleavage at 13 adenines”.
Regarding `CN(C)CCCNC(=O)c1cc(NC(=O)c2cc(NC(=O)c3cc(NC(=O)CCNC(=O)c4cc(NC(=O)c5cc(NC(=O)c6nccn6C)cn5C)cn4C)cn3C)cn2C)cn1C` [ImPyPy-β-PyPyPy-Dp], the “Ka higher than ImPyPy-Py-PyPyPy-Dp by a factor of” value in the assay on 5′-AAAAAGACAAAAA-3′ is recorded as approximately 85. Also, the “association constant Ka” value in the assay with 5′-AAAAAGACAAAAA-3′ (slipped binding) was 5e+09 M⁻¹. Also, the “affinity higher than ImPyPy-Py-PyPyPy-Dp by a factor of” value in the assay on 5′-TGTTAAACA-3′ is listed as approximately 10. This compound came in with a Ka with 5′-TGTTAAACA-3′ (overlapped binding) of 8e+08 M⁻¹.
Regarding “Im-β-ImPy-γ-Im-β-ImPy-β-Dp [Im-βImPy-γ-Im-β-ImPy-β-Dp]”, the “affinity (in words)” value in the assay with 5′-TGCGCA-3′ (5′-TGCGCA-3′ sequences) is “subnanomolar affinities”.
For the compound `CN(C)CCCNC(=O)CCNC(=O)c1cc(NC(=O)c2cc(NC(=O)c3cc(NC(=O)c4nc(NC(=O)CCCNC(=O)c5cc(NC(=O)c6cc(NC(=O)c7cc(NC(=O)c8nccn8C)cn7C)cn6C)cn5C)cn4C)cn3C)cn2C)cn1C` [ImPyPyPy-γ-ImPyPyPy-β-Dp], the free energy difference in the assay with 5′-AGTACT-3′ (N to C—H replacement, 5′-AGTACT-3′ complex) is approximately 2.5 kcali/mole. For the same compound, at 5′-AGTACT-3′ (match site 5′-AGTACT-3′, read-out: concentration at which the match site is bound), the Kd was found to be 0.03 nM. Moreover, in the assay with 5′-AGTACT-3′ (mismatch 5′-AGTATT-3′ vs match 5′-AGTACT-3′), the “lower affinity for single base pair mismatch site” value was approximately 100 fold. For the same compound, the “reduction of affinity of the polyamide•5′-AGTACT-3′ complex on replacing a single nitrogen atom with C—H” value in the assay on 5′-AGTACT-3′ (vs ImPyPyPy-γ-PyPyPyPy-β-Dp) is reported as approximately 75 fold.
As for ImImPyPy-γ-ImImPyPy-β-Dp-EDTA, the “binding orientation by affinity cleaving” value in assay [2] is “two equivalent orientations”.
In the assay on 5′-TGCGCA-3′, `CN(C)CCCNC(=O)CCNC(=O)c1cc(NC(=O)c2nc(NC(=O)c3cc(NC(=O)c4nc(NC(=O)CCCNC(=O)c5cc(NC(=O)c6nc(NC(=O)c7cc(NC(=O)c8nccn8C)cn7C)cn6C)cn5C)cn4C)cn3C)cn2C)cn1C` [ImPyImPy-γ-ImPyImPy-β-Dp] yielded a Ka of 4e+07 M⁻¹ and a specificity of 4 fold.
On to `CN(C)CCCNC(=O)c1cc(NC(=O)c2cc(NC(=O)c3cc(NC(=O)CCCNC(=O)c4cc(NC(=O)c5cc(NC(=O)c6nccn6C)cn5C)cn4C)cn3C)cn2C)cn1C` [ImPyPy-γ-PyPyPy-Dp, reference compound], for which the “equilibrium association constant Ka” value with 5′-TGTTA-3′ [3] (5′-TGTTA-3′ target site, prior art) is 8e+07 M⁻¹. Also, in the assay with 5′-TGTTA-3′ [3] (5′-TGTTA-3′), the “increase in Ka relative to the unlinked three-ring polyamide pair ImPyPy and PyPyPy” value was 300 fold. The “apparent first order association constant Ka” value with 5′-TGTTA-3′ [4] (5′-TGTTA-3′ match site) was 8e+07 M⁻¹. Further, the “specificity, match site relative to single base pair mismatch site” value in the assay on 5′-TGTTA-3′ [4] (5′-TGTTA-3′ match vs 5′-TGACA-3′ mismatch) is reported as 24 fold.
`CN(C)CCCNC(=O)CCNC(=O)c1cc(NC(=O)c2cc(NC(=O)c3cc(NC(=O)c4cc(NC(=O)CCCNC(=O)c5cc(NC(=O)c6cc(NC(=O)c7cc(NC(=O)c8nccn8C)cn7C)cn6C)cn5C)cn4C)cn3C)cn2C)cn1C` [ImPyPyPy-γ-PyPyPyPy-β-Dp]: the “loss in binding energy” value with 5′-AGTATT-3′ (C—H to N replacement, 5′-AGTATT-3′ complex) is given as approximately 1.3 kcal/mol. The Kd on 5′-AGTATT-3′ (match site 5′-AGTATT-3′, read-out: concentration at which the match site is bound) is 0.3 nM. Besides, the “lower affinity for single base pair mismatch site” value with 5′-AGTATT-3′ (mismatch 5′-AGTACT-3′ vs match 5′-AGTATT-3′) is approximately 10 fold. Also, the “reduction of affinity of the polyamide•5′-AGTATT-3′ complex on replacing a C—H with N” value with 5′-AGTATT-3′ (vs ImPyPyPy-γ-ImPyPyPy-β-Dp) is approximately 10 fold.
As to ImImImIm-γ-PyPyPyPy-β-Dp-EDTA, the “binding orientation by affinity cleaving” value in [2] was “single orientation”.
As to `CN(C)CCCNC(=O)CCNC(=O)c1cc(NC(=O)c2cc(NC(=O)CCNC(=O)c3cc(NC(=O)c4nc(NC(=O)CCNC(=O)c5cc(NC(=O)c6nc(NC(=O)CCNC(=O)c7cc(NC(=O)c8nccn8C)cn7C)cn6C)cn5C)cn4C)cn3C)cn2C)cn1C` [ImPy-β-ImPy-β-ImPy-β-PyPy-β-Dp], in the assay on 5′-[…]-3′, the “lower affinity at other mismatch-sites on the restriction fragment” value was 10-20 fold. For the same compound, in the assay with 5′-[…]-3′ (16 bp target site, pH 7.0, 24° C., values above 1-2×10^10 M^−1 are a lower limit), the “apparent monomeric association constant Ka” value is 3.5e+10 M⁻¹. Further, the “lower affinity at proximal two-base pair mismatch site” value in the assay with 5′-[…]-3′ ([…]) is recorded as “at least 35 fold”.
Regarding ImPyImPy-γ-ImPyImPy-β-Dp-EDTA, the “binding orientation by affinity cleaving” value in assay [2] is “two equivalent orientations”.

Source of the values: patent publication US6555692B1, “Preparation and use of bifunctional molecules having DNA sequence binding specificity” (California Institute of Technology, priority 1996, dated 2003).
